Assay results as given in patent publication US20240116985A1, “STAPLED PEPTIDES AND METHODS THEREOF” (priority 2020, published 2024).

Biological target: T1, full-length beta-Catenin (Uniprot ID P35222) (Homo sapiens, UniProt P35222)
T1 construct: 10 nM full-length beta-Catenin (Uniprot ID P35222)
T1 sequence (P35222 1-781): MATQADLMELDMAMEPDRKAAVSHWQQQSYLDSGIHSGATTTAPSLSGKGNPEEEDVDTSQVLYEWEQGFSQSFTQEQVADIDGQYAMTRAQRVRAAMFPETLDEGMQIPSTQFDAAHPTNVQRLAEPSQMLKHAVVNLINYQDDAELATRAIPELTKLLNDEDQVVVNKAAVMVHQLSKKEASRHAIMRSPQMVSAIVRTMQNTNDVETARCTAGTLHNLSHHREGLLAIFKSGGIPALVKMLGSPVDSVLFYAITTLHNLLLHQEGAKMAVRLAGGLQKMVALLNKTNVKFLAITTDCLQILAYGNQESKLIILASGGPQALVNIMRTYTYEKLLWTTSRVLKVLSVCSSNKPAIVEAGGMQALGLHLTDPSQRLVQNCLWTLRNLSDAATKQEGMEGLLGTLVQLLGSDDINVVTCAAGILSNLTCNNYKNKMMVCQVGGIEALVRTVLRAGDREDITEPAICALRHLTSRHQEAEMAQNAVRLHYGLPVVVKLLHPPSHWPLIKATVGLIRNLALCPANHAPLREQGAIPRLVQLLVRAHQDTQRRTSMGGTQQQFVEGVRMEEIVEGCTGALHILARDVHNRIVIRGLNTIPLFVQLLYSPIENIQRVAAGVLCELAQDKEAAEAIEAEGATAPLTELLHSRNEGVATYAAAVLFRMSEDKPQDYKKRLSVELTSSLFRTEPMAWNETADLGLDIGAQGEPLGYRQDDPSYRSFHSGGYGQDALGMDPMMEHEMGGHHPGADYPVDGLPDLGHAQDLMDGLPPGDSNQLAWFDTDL
Experiment: Fluorescence polarization IC50 (beta-catenin / 5FAM-TCF4 10-53 competition)
Assay type: binding
Details: fluorescence polarization; read-out: beta-Catenin FP IC50

Row | Compound | IC50 [nM]
1 | CC(=O)N1CCC[C@]12CC=CCCCC1(CCCC=CCCCOC(=O)N3CC[C@@](C(=O)N[C@@H](Cc4ccccc4)C(=O)N[C@@H](Cc4csc5ccccc45)C(=O)N[C@@H](CCCCNC(C)C)C(N)=O)(C3)NC(=O)[C@H](CC(C)C)NC(=O)[C@H](Cc3ccccc3)NC(=O)[C@H](C)NC(=O)[C@H](CCCCNC(C)C)NC(=O)[C@H](CCC(N)=O)NC(=O)[C@H](CC(=O)O)NC1=O)NC(=O)[C@H](CC(C)(C)C)NC(=O)[C@H](CC(N)=O)NC2=O (stereo partly drawn) [I-1645, Ac-PL3-Asn-Npg-B5-Asp-Gln-iPrLys-Ala-Phe-Leu-PyrS2-Phe-BztA-iPrLys-NH2] | 940
2 | CC(=O)N1CCC[C@]12CC=CCCCC1(CCCC=CCCCOC(=O)N3CC[C@@](C(=O)N[C@@H](Cc4ccccc4)C(=O)N[C@@H](Cc4csc5ccccc45)C(=O)N[C@@H](CCO)C(N)=O)(C3)NC(=O)[C@H](CC(C)C)NC(=O)[C@H](Cc3ccccc3)NC(=O)[C@H](C)NC(=O)[C@H](CCCCNC(C)C)NC(=O)[C@H](CCC(N)=O)NC(=O)[C@H](CC(=O)O)NC1=O)NC(=O)[C@H](CC(C)(C)C)NC(=O)[C@H](CC(N)=O)NC2=O (stereo partly drawn) [I-1646, Ac-PL3-Asn-Npg-B5-Asp-Gln-iPrLys-Ala-Phe-Leu-PyrS2-Phe-BztA-Hse-NH2] | 640
3 | CC(=O)N1CCC[C@]12CC=CCCCC1(CCCC=CCCCOC(=O)N3CC[C@@](C(=O)N[C@@H](Cc4ccccc4)C(=O)N[C@@H](Cc4csc5ccccc45)C(=O)N[C@@H](CCC(N)=O)C(N)=O)(C3)NC(=O)[C@H](CC(C)C)NC(=O)[C@H](Cc3ccccc3)NC(=O)[C@H](C)NC(=O)[C@H](CCCCNC(C)C)NC(=O)[C@H](CCC(N)=O)NC(=O)[C@H](CC(=O)O)NC1=O)NC(=O)[C@H](Cc1ccc(O)cc1)NC(=O)[C@H](CC(N)=O)NC2=O (stereo partly drawn) [I-1647, Ac-PL3-Asn-Tyr-B5-Asp-Gln-iPrLys-Ala-Phe-Leu-PyrS2-Phe-BztA-Gln-NH2] | 2350
4 | CC(=O)N1CCC[C@]12CC=CCCCC1(CCCC=CCCCOC(=O)N3CC[C@@](C(=O)N[C@@H](Cc4ccccc4)C(=O)N[C@@H](Cc4csc5ccccc45)C(=O)N[C@@H](CCC(N)=O)C(N)=O)(C3)NC(=O)[C@H](CC(C)C)NC(=O)[C@H](CC3CCCCC3)NC(=O)[C@H](C)NC(=O)[C@H](CCCCNC(C)C)NC(=O)[C@H](CCC(N)=O)NC(=O)[C@H](CC(=O)O)NC1=O)NC(=O)[C@H](CC(C)(C)C)NC(=O)[C@H](CC(N)=O)NC2=O (stereo partly drawn) [I-1649, Ac-PL3-Asn-Npg-B5-Asp-Gln-iPrLys-Ala-Cha-Leu-PyrS2-Phe-BztA-Gln-NH2] | 2480
5 | CC(=O)N1CCC[C@]12CC=CCCCC1(CCCC=CCCCOC(=O)N3CC[C@@](C(=O)N[C@@H](Cc4ccccc4)C(=O)N[C@@H](Cc4csc5ccccc45)C(=O)N[C@@H](CCC(N)=O)C(N)=O)(C3)NC(=O)[C@H](CC3CCCCC3)NC(=O)[C@H](Cc3ccccc3)NC(=O)[C@H](C)NC(=O)[C@H](CCCCNC(C)C)NC(=O)[C@H](CCC(N)=O)NC(=O)[C@H](CC(=O)O)NC1=O)NC(=O)[C@H](CC(C)(C)C)NC(=O)[C@H](CC(N)=O)NC2=O (stereo partly drawn) [I-1650, Ac-PL3-Asn-Npg-B5-Asp-Gln-iPrLys-Ala-Phe-Cha-PyrS2-Phe-BztA-Gln-NH2] | 1680
6 | CC(=O)N1CCC[C@]12CC=CCCCC1(CCCC=CCCCOC(=O)N3CC[C@@](C(=O)N[C@@H](Cc4ccccc4Cl)C(=O)N[C@@H](Cc4csc5ccccc45)C(=O)N[C@@H](CCC(N)=O)C(=O)N[C@@H](C)CO)(C3)NC(=O)[C@H](CC(C)C)NC(=O)[C@H](Cc3ccccc3)NC(=O)[C@H](C)NC(=O)[C@H](C)NC(=O)[C@H](Cc3cccc(C(=O)O)c3)NC(=O)[C@H](CC(=O)O)NC1=O)NC(=O)[C@H](CC(C)(C)C)NC(=O)[C@H](CC(=O)O)NC2=O (stereo partly drawn) [I-1673, Ac-PL3-Asp-Npg-B5-Asp-3COOHF-Ala-Ala-Phe-Leu-PyrS2-2C1F-BztA-Gln-Alao1] | 28
7 | CC(=O)N1CCC[C@]12CC=CCCCC1(CCCC=CCCCOC(=O)N3CC[C@@](C(=O)N[C@@H](Cc4ccccc4Cl)C(=O)N[C@@H](Cc4csc5ccccc45)C(=O)N[C@@H](CCC(N)=O)C(=O)N[C@H](CO)CC(C)C)(C3)NC(=O)[C@H](CC(C)C)NC(=O)[C@H](Cc3ccccc3)NC(=O)[C@H](C)NC(=O)[C@H](C)NC(=O)[C@H](Cc3cccc(C(=O)O)c3)NC(=O)[C@H](CC(=O)O)NC1=O)NC(=O)[C@H](CC(C)(C)C)NC(=O)[C@H](CC(=O)O)NC2=O (stereo partly drawn) [I-1676, Ac-PL3-Asp-Npg-B5-Asp-3COOHF-Ala-Ala-Phe-Leu-PyrS2-2C1F-BztA-Gln-Leuo1] | 91

More lines, in order of falling IC50, values ahead:

Row | IC50 [nM] | Compound
8 | 3970 | CC(=O)N1CCC[C@]12CC=CCCCC1(CCCC=CCCCOC(=O)N3CC[C@@](C(=O)N[C@@H](CC4CCCCC4)C(=O)N[C@@H](Cc4csc5ccccc45)C(=O)N[C@@H](CCC(N)=O)C(N)=O)(C3)NC(=O)[C@H](CC(C)C)NC(=O)[C@H](Cc3ccccc3)NC(=O)[C@H](C)NC(=O)[C@H](CCCCNC(C)C)NC(=O)[C@H](CCC(N)=O)NC(=O)[C@H](CC(=O)O)NC1=O)NC(=O)[C@H](CC(C)(C)C)NC(=O)[C@H](CC(N)=O)NC2=O (stereo partly drawn) [I-1651, Ac-PL3-Asn-Npg-B5-Asp-Gln-iPrLys-Ala-Phe-Leu-PyrS2-Cha-BztA-Gln-NH2]
9 | 2130 | CC(=O)N1CCC[C@]12CC=CCCCC1(CCCC=CCCCOC(=O)N3CC[C@@](C(=O)N[C@@H](Cc4ccccc4)C(=O)N[C@@H](Cc4csc5ccccc45)C(=O)N[C@@H](CCCCNC(C)C)C(N)=O)(C3)NC(=O)[C@H](CCCCNC(C)C)NC(=O)[C@H](Cc3ccccc3)NC(=O)[C@H](C)NC(=O)[C@H](CCCCNC(C)C)NC(=O)[C@H](CCC(N)=O)NC(=O)[C@H](CC(=O)O)NC1=O)NC(=O)[C@H](CC(C)(C)C)NC(=O)[C@H](CC(N)=O)NC2=O (stereo partly drawn) [I-1654, Ac-PL3-Asn-Npg-B5-Asp-Gln-iPrLys-Ala-Phe-iPrLys-PyrS2-Phe-BztA-iPrLys-NH2]
10 | 903 | CC(=O)N1CCC[C@]12CC=CCCCC1(CCCC=CCCCOC(=O)N3CC[C@@](C(=O)N[C@@H](Cc4ccccc4)C(=O)N[C@@H](Cc4csc5ccccc45)C(=O)N[C@@H](CCC(N)=O)C(N)=O)(C3)NC(=O)[C@H](CCCCNC(C)C)NC(=O)[C@H](Cc3ccccc3)NC(=O)[C@H](C)NC(=O)[C@H](CCCCNC(C)C)NC(=O)[C@H](CCC(N)=O)NC(=O)[C@H](CC(=O)O)NC1=O)NC(=O)[C@H](CC(C)(C)C)NC(=O)[C@H](CC(N)=O)NC2=O (stereo partly drawn) [I-1653, Ac-PL3-Asn-Npg-B5-Asp-Gln-iPrLys-Ala-Phe-iPrLys-PyrS2-Phe-BztA-Gln-NH2]
11 | 822 | CC(=O)N1CCC[C@]12CC=CCCCC1(CCCC=CCCCOC(=O)N3CC[C@@](C(=O)N[C@@H](Cc4ccccc4)C(=O)N[C@@H](Cc4csc5ccccc45)C(=O)N[C@@H](CCCCN)C(N)=O)(C3)NC(=O)[C@H](CC(C)C)NC(=O)[C@H](Cc3ccccc3)NC(=O)[C@H](C)NC(=O)[C@H](CCCCNC(C)C)NC(=O)[C@H](CCC(N)=O)NC(=O)[C@H](CC(=O)O)NC1=O)NC(=O)[C@H](CC(C)(C)C)NC(=O)[C@H](CC(N)=O)NC2=O (stereo partly drawn) [I-1643, Ac-PL3-Asn-Npg-B5-Asp-Gln-iPrLys-Ala-Phe-Leu-PyrS2-Phe-BztA-Lys-NH2]
12 | 36 | CC(=O)N1CCC[C@]12CC=CCCCC1(CCCC=CCCCOC(=O)N3CC[C@@](C(=O)N[C@@H](Cc4ccsc4)C(=O)N[C@@H](Cc4csc5ccccc45)C(=O)N[C@@H](CCC(N)=O)C(=O)NC4CCCCC4)(C3)NC(=O)[C@H](CC(N)=O)NC(=O)[C@H](Cc3ccccc3)NC(=O)[C@H](C)NC(=O)[C@H](C)NC(=O)[C@H](CN(CC(=O)O)CC(F)(F)F)NC(=O)[C@H](CC(=O)O)NC1=O)NC(=O)[C@H](CC(C)(C)C)NC(=O)[C@H](CC(=O)O)NC2=O (stereo partly drawn) [I-1642, Ac-PL3-Asp-Npg-B5-Asp-TfeGA-Ala-Ala-Phe-Asn-PyrS2-3Thi-BztA-Gln-NHCyHe]
13 | 17.5 | CC(=O)N1CCC[C@]12CC=CCCCC1(CCCC=CCCCOC(=O)N3CC[C@@](C(=O)N[C@@H](Cc4ccsc4)C(=O)N[C@@H](Cc4csc5ccccc45)C(=O)N[C@@H](CCC(N)=O)C(=O)N[C@@H](C)CO)(C3)NC(=O)[C@H](CC(C)C)NC(=O)[C@H](Cc3ccccc3)NC(=O)[C@H](C)NC(=O)[C@H](C)NC(=O)[C@H](CN(CC(=O)O)CC(F)(F)F)NC(=O)[C@H](CC(=O)O)NC1=O)NC(=O)[C@H](CC(C)(C)C)NC(=O)[C@H](CC(=O)O)NC2=O (stereo partly drawn) [I-1679, Ac-PL3-Asp-Npg-B5-Asp-TfeGA-Ala-Ala-Phe-Leu-PyrS2-3Thi-BztA-Gln-Alao1]
14 | 17 | CC(=O)N1CCC[C@]12CC=CCCCC1(CCCC=CCCCOC(=O)N3CC[C@@](C(=O)N[C@@H](Cc4ccccc4Cl)C(=O)N[C@@H](Cc4csc5ccccc45)C(=O)N[C@@H](CCC(N)=O)C(=O)N[C@H](CO)[C@@H](C)O)(C3)NC(=O)[C@H](CC(C)C)NC(=O)[C@H](Cc3ccccc3)NC(=O)[C@H](C)NC(=O)[C@H](C)NC(=O)[C@H](Cc3cccc(C(=O)O)c3)NC(=O)[C@H](CC(=O)O)NC1=O)NC(=O)[C@H](CC(C)(C)C)NC(=O)[C@H](CC(=O)O)NC2=O (stereo partly drawn) [I-1677, Ac-PL3-Asp-Npg-B5-Asp-3COOHF-Ala-Ala-Phe-Leu-PyrS2-2C1F-BztA-Gln-Thro1]
